According to patent publication US9376420B2 (YUHAN CORPORATION, priority 2012, dated 2016):

Target: T1, human LXRβ (Homo sapiens, UniProt P55055)
T1 construct: expressed in transfected cells; host or cells: HEK293 cells (ATCC CRL-1573), transient transfection with pFA-hLXRβ/GAL4 and pUAS
T1 sequence (P55055 222-460 limits assumed): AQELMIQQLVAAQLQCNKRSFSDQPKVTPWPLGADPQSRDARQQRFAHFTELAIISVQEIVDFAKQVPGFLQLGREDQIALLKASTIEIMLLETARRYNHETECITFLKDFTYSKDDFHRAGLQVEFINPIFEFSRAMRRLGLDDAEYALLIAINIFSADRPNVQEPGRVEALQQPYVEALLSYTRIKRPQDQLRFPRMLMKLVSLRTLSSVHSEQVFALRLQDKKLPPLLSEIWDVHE
Assay: Assay for Transcriptional Activity of LXRβ (GAL4-hLXRβ LBD luciferase reporter, transient transfection)
Type: cell-based
Conditions: HEK293 cells transfected with pFA-hLXRβ/GAL4 and pUAS, 24 hours; for Emax: fold value in comparison with the control (DMSO-treated group); for EC50: increase of transcriptional activity of LXRβ, average of three independent tests
Method in brief: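 EC50 values, averaged over three independent runs, come from a four-parameter fit of 9-point half-log curves spanning 0.01–50 μM. Luciferase output was read in lysed HEK293 cells 24 h after dosing at 37 °C, following transient transfection with a GAL4-human LXRβ LBD fusion plus GAL4-responsive reporter.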

| SMILES | Emax [fold] | EC50 [nM] |
| --- | --- | --- |
| Cc1ccccc1-c1ccc(C2CC(C(O)(C(F)(F)F)C(F)(F)F)=NN2c2ccccc2Cl)c(F)c1 (centres unmarked) [Example 340, 1-(2-chloro-phenyl)-5-(3-fluoro-2′-methyl-biphenyl-4-yl)-3-[di-(trifluoromethyl)-hydroxy-methyl]-4,5-dihydro-1H-pyrazole] | 101 | 780 |
| CC(=O)c1ccc(-c2ccc(C3CC(C(O)(C(F)(F)F)C(F)(F)F)=NN3c3ccccc3Cl)c(F)c2)cc1 (centres unmarked) [Example 341, 1-(2-chloro-phenyl)-5-(4′-acetyl-3-fluoro-biphenyl-4-yl)-3-[di-(trifluoromethyl)-hydroxy-methyl]-4,5-dihydro-1H-pyrazole] | 112 | 353 |
| CC(C)(C)OC(=O)N1CC=C(c2ccc(C3CC(C(O)(C(F)(F)F)C(F)(F)F)=NN3c3ccccc3Cl)c(F)c2)CC1 (centres unmarked) [Example 342, 1-(2-chloro-phenyl)-5-[2-fluoro-4-(1-BOC-1,2,3,6-tetrahydropyridin-4-yl)-phenyl]-3-[di-(trifluoromethyl)-hydroxy-methyl]-4,5-dihydro-1H-pyrazole] | 21 | 4070 |
| COc1ccc(-c2ccc(C3CC(C(O)(C(F)(F)F)C(F)(F)F)=NN3c3ccccc3Cl)c(F)c2)cn1 (centres unmarked) [Example 343, 1-(2-chloro-phenyl)-5-[2-fluoro-4-(6-methoxy-pyridin-3-yl)-phenyl]-3-[di-(trifluoromethyl)-hydroxy-methyl]-4,5-dihydro-1H-pyrazole] | 81 | 617 |
| OC(C1=NN(c2ccccc2Cl)C(c2ccc(-c3ccc(F)cc3)cc2F)C1)(C(F)(F)F)C(F)(F)F (centres unmarked) [Example 344, 1-(2-chloro-phenyl)-5-(3,4′-difluoro-biphenyl-4-yl)-3-[di-(trifluoromethyl)-hydroxy-methyl]-4,5-dihydro-1H-pyrazole] | 53 | 989 |
| C[S+]([O-])c1cccc(-c2ccc(C3CC(C(O)(C(F)(F)F)C(F)(F)F)=NN3c3ccccc3Cl)c(F)c2)c1 (centres unmarked) [Example 345, 1-(2-chloro-phenyl)-5-(3-fluoro-3′-methanesulfinyl-biphenyl-4-yl)-3-[di-(trifluoromethyl)-hydroxy-methyl]-4,5-dihydro-1H-pyrazole] | 42 | 71 |
| CS(=O)(=O)c1cccc(-c2ccc(C3CC(C(O)(C(F)(F)F)C(F)(F)F)=NN3c3ccccc3Cl)c(F)c2)c1 (centres unmarked) [Example 347, 1-(2-chloro-phenyl)-5-(3-fluoro-3′-methanesulfonyl-biphenyl-4-yl)-3-[di-(trifluoromethyl)-hydroxy-methyl]-4,5-dihydro-1H-pyrazole] | 62 | 42 |
| CC(=O)c1ccccc1-c1ccc(C2CC(C(O)(C(F)(F)F)C(F)(F)F)=NN2c2ccccc2Cl)cn1 (centres unmarked) [Example 348, 5-[6-(2-acetyl-phenyl)-pyridin-3-yl]-1-(2-chloro-phenyl)-3-[di-(trifluoromethyl)-hydroxy-methyl]-4,5-dihydro-1H-pyrazole] | 45 | 991 |
| COc1cccc(-c2ccc(C3CC(C(O)(C(F)(F)F)C(F)(F)F)=NN3c3ccccc3Cl)cn2)c1 (centres unmarked) [Example 349, 1-(2-chloro-phenyl)-5-[6-(3-methoxy-phenyl)-pyridin-3-yl]-3-[di-(trifluoromethyl)-hydroxy-methyl]-4,5-dihydro-1H-pyrazole] | 60 | 772 |
| OC(C1=NN(c2ccccc2Cl)C(c2ccc(-c3ccc(F)cc3)nc2)C1)(C(F)(F)F)C(F)(F)F (centres unmarked) [Example 353, 1-(2-chloro-phenyl)-5-[6-(4-fluoro-phenyl)-pyridin-3-yl]-3-[di-(trifluoromethyl)-hydroxy-methyl]-4,5-dihydro-1H-pyrazole] | 94 | 473 |
| CC(C)(C)OC(=O)N1CCN(c2ccc(C3CC(C(O)(C(F)(F)F)C(F)(F)F)=NN3c3ccccc3Cl)cn2)CC1 (centres unmarked) [Example 355, 1-(2-chloro-phenyl)-5-[6-(4-BOC-piperazin-1-yl)-pyridin-3-yl]-3-[di-(trifluoromethyl)-hydroxy-methyl]-4,5-dihydro-1H-pyrazole] | 43 | 4130 |
| CS(=O)(=O)N1CC=C(c2ccc(C3CC(C(O)(C(F)(F)F)C(F)(F)F)=NN3c3ccccc3Cl)cn2)CC1 (centres unmarked) [Example 358, 1-(2-chloro-phenyl)-5-[6-(1-methanesulfonyl-1,2,3,6-tetrahydropyridin-4-yl)-pyridin-3-yl]-3-[di-(trifluoromethyl)-hydroxy-methyl]-4,5-dihydro-1H-pyrazole] | 90 | 719 |
| O=S(=O)(C1CC1)N1CC=C(c2ccc(C3CC(C(O)(C(F)(F)F)C(F)(F)F)=NN3c3ccccc3Cl)cn2)CC1 (centres unmarked) [Example 359, 1-(2-chloro-phenyl)-5-[6-(1-cyclopropanesulfonyl-1,2,3,6-tetrahydropyridin-4-yl)-pyridin-3-yl]-3-[di-(trifluoromethyl)-hydroxy-methyl]-4,5-dihydro-1H-pyrazole] | 92 | 630 |
| CS(=O)(=O)N1CCN(c2ccc(C3CC(C(O)(C(F)(F)F)C(F)(F)F)=NN3c3ccccc3Cl)cn2)CC1 (centres unmarked) [Example 360, 1-(2-chloro-phenyl)-5-[6-(4-methanesulfonyl-piperazin-1-yl)-pyridin-3-yl]-3-[di-(trifluoromethyl)-hydroxy-methyl]-4,5-dihydro-1H-pyrazole] | 45 | 10200 |
| CC(=O)c1cccc(-c2ccc(C3CC(C(O)(C(F)(F)F)C(F)(F)F)=NN3c3ccccc3Cl)cc2F)c1 (centres unmarked) [Example 361, 5-(3′-acetyl-2-fluoro-biphenyl-4-yl)-1-(2-chloro-phenyl)-3-[di-(trifluoromethyl)-hydroxy-methyl]-4,5-dihydro-1H-pyrazole] | 39 | 632 |
| CC(=O)c1ccc(-c2ccc(C3CC(C(O)(C(F)(F)F)C(F)(F)F)=NN3c3ccccc3Cl)cc2F)cc1 (centres unmarked) [Example 362, 5-(4′-acetyl-2-fluoro-biphenyl-4-yl)-1-(2-chloro-phenyl)-3-[di-(trifluoromethyl)-hydroxy-methyl]-4,5-dihydro-1H-pyrazole] | 72 | 580 |
| COc1ccc(-c2ccc(C3CC(C(O)(C(F)(F)F)C(F)(F)F)=NN3c3ccccc3Cl)cc2F)cc1 (centres unmarked) [Example 363, 1-(2-chloro-phenyl)-5-(2-fluoro-4′-methoxy-biphenyl-4-yl)-3-[di-(trifluoromethyl)-hydroxy-methyl]-4,5-dihydro-1H-pyrazole] | 50 | 1210 |
| CS(=O)(=O)c1ccc(-c2ccc(C3CC(C(O)(C(F)(F)F)C(F)(F)F)=NN3c3ccccc3Cl)cc2F)cc1 (centres unmarked) [Example 365, 1-(2-chloro-phenyl)-5-(2-fluoro-4′-methylsulfonyl-biphenyl-4-yl)-3-[di-(trifluoromethyl)-hydroxy-methyl]-4,5-dihydro-1H-pyrazole] | 68 | 283 |
| CC(C)Oc1ccccc1-c1ccc(C2CC(C(O)(C(F)(F)F)C(F)(F)F)=NN2c2ccccc2Cl)cc1F (centres unmarked) [Example 367, 1-(2-chloro-phenyl)-5-(2-fluoro-2′-isopropoxy-biphenyl-4-yl)-3-[di-(trifluoromethyl)-hydroxy-methyl]-4,5-dihydro-1H-pyrazole] | 59 | 312 |
